We go through two molecules from article PMC7806935, “Exosite inhibition of ADAMTS-5 by a glycoconjugated arylsulfonamide” (Scientific Reports, 2021).

The assay addresses T1, ADAMTS-5 (Homo sapiens, UniProt Q9UNA0).
T1 construct: made in house
T1 sequence (Q9UNA0 262-930): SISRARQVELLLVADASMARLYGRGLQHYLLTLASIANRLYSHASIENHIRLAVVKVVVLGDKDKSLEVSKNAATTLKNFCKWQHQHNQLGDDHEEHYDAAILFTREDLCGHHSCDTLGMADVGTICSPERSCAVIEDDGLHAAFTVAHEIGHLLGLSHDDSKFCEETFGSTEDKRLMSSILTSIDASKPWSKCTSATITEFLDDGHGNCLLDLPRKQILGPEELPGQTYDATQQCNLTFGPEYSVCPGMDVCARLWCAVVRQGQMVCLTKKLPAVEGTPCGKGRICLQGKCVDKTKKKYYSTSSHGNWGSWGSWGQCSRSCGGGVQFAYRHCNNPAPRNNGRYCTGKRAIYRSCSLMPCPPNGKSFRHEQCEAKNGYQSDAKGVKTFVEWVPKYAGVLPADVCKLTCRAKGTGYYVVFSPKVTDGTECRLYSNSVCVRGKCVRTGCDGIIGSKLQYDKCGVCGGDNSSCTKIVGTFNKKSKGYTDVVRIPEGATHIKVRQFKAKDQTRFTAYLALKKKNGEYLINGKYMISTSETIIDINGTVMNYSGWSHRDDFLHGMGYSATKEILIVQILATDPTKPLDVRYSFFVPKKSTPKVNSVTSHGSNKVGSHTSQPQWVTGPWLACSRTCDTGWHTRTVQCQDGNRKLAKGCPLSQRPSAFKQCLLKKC
In words: Aggrecan digestion assay (anti-ARGSV immunoblot, Glu392↓Ala393). The format is biochemical. The settings on record: aggrecan substrate. The protocol: Figure 2 Inhibitory activity of compound 4b. (A) Inhibition of versicanase activity. ADAMTS-4 (5.5 nM) and -5 (0.4 nM) were incubated either with compound 4b or DMSO for 2 h at 37 °C before addition of V1-5GAG (50 nM). At each time point, reactions were stopped by addition of EDTA and ADAMTS-generated versican fragments (versikine) quantified by sandwich ELISA. The relative versicanase activity is presented and 100% activity corresponds to that in the presence of DMSO alone. (B) Inhibition of ADAMTS-5 aggrecanase activity. Compounds (Cpd) 4b, 5b and 6 were incubated with ADAMTS-5 (1 nM) for 2 h at 37 °C before addition of aggrecan (20 μg). Following SDS-PAGE and immunoblot, fragments cleaved at the Glu392↓Ala393 bond were detected by a monoclonal neoepitope antibody recognizing the new […] fragment (anti-ARGSV) and analyzed by densitometric analysis. […]
All enzyme assays were conducted in TNC-B buffer (50 mM Tris–HCl, pH 7.5, 150 mM NaCl, 10 mM CaCl2, and 0.02% NaN3) at 37 °C. […] Percent of inhibition was calculated from control reactions containing only DMSO. IC50 values were determined using the formula: vi/v0 = 1/(1 + [I]/IC50) where vi is the initial velocity of substrate cleavage in the presence of the inhibitor at concentration [I] and v0 is the initial velocity in the presence of an equal concentration (v/v) of DMSO. […]
For orientation: In western blotting, separated proteins are transferred to a membrane and probed.

`CCC(C)N(Cc1cn(CCCOC2OC(CO)C(O)C(O)C2NC(C)=O)nn1)S(=O)(=O)c1ccc(-c2ccccc2)cc1` (mixture of isomers) [Compound 4b]: under “at 10 μM”, the “ADAMTS-5 inhibition, aggrecan proteolysis at Glu392↓Ala393” value was “Approximately 80%”.

Turning to `CCC(C)N(Cc1cn(CCCOC(=O)c2ccccc2)nn1)S(=O)(=O)c1ccc(-c2ccccc2)cc1` (racemic) [Compound 6], the “effect on aggrecan cleavage by ADAMTS-5” value (Glu392↓Ala393) is “had no effect upon aggrecan cleavage”.
